For four molecules, IC50 results are on record in patent US8394772B2, “Glycoside derivative and uses thereof” (Novartis AG, priority 2009, dated 2013).

One assay addresses T1, human SGLT1 (Homo sapiens, UniProt P13866).
T1 construct: expressed in transfected cells; host or cells: CHO-K1 or HEK293
T1 sequence (P13866 1-664): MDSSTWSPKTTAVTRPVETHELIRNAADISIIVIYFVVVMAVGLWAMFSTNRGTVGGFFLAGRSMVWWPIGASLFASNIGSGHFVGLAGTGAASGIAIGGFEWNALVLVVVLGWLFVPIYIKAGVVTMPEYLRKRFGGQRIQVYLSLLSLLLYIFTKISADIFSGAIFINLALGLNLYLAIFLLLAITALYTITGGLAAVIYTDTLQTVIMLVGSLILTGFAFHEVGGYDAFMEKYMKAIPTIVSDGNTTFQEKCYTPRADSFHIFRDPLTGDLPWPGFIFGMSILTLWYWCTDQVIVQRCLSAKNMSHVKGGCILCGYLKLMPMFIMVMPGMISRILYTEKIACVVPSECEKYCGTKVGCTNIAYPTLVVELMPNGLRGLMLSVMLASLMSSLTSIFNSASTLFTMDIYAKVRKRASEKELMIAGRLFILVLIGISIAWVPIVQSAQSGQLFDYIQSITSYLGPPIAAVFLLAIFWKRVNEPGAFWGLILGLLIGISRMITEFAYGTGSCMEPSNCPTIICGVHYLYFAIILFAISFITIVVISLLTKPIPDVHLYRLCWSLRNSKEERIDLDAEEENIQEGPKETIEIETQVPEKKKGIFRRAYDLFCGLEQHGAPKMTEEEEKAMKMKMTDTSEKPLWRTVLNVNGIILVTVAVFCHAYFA
Description: Analogous SGLT1 selectivity test: hSGLT1 expressed in CHO-K1 or HEK293 cells. The note with it: n = 1-4; 14C-AMG uptake, hSGLT1-transfected CHO-K1 or HEK293 cells. The format is cell-based. Here is the method: (§1) The SGLT-2 assay is carried out as follows: CHO-hSGLT2 cells are cultivated in Ham's F12 Medium (BioWhittaker) with 10% fetal calf serum and 250 μg/mL zeocin (Invitrogen), and HEK293-hSGLT2 cells are cultivated in DMEM medium with 10% fetal calf serum and 250 μg/mL zeocin (Invitrogen). The cells are detached from the culture flasks by washing twice with PBS and subsequently treating with trypsin/EDTA. After the addition of cell culture medium the cells are centrifuged, resuspended in culture medium and counted in a Casy cell counter. Then 40,000 cells per well are seeded into a white, 96-well plate coated with poly-D-lysine and incubated overnight at 37° C., 5% CO2. The cells are washed twice with 250 μl of assay buffer (Hanks Balanced Salt Solution, 137 mM NaCl, 5.4 mM KCl, 2.8 mM CaCl2, 1.2 mM MgSO4 and 10 mM HEPES (pH 7.4), 50 μg/mL of gentamycin). 250 μl of assay buffer and 5 μl of test compound are then added to each well and the plate is incubated for a further 15 minutes in the incubator. 5 μl of 10% DMSO are used as the negative control. The reaction is started by adding 5 μl of 14 C-AMG (0.05 μCi) to each well. After 2 hours' incubation at 37° C., 5% CO2, the cells are washed again with 250 μl of PBS ([…]) and then lysed by the addition of 25 μl of 0.1 N NaOH (5 min. at 37° C.). 200 μl of MicroScint20 (Packard) are added to each well and incubation is continued for a further 20 min at 37° C. After this incubation the radioactivity of the 14 C-AMG absorbed is measured in a Topcount (Packard) using a 14 C scintillation program.
To determine the selectivity with respect to human SGLT1 an analogous test is set up in which the cDNA for hSGLTI (Genbank Ace. No. NM000343) instead of hSGLT2 cDNA is expressed in CHO-K1 or HEK293 cells.

Assay [1] has as its target T2, human sodium glucose cotransporter 2 (Homo sapiens, UniProt P31639).
T2 construct: expressed in transfected cells; host or cells: CHO-K1 (ATCC CCL-61) or HEK293 (ATCC CRL-1573), stably transfected with pZeoSV
T2 sequence (P31639 1-672): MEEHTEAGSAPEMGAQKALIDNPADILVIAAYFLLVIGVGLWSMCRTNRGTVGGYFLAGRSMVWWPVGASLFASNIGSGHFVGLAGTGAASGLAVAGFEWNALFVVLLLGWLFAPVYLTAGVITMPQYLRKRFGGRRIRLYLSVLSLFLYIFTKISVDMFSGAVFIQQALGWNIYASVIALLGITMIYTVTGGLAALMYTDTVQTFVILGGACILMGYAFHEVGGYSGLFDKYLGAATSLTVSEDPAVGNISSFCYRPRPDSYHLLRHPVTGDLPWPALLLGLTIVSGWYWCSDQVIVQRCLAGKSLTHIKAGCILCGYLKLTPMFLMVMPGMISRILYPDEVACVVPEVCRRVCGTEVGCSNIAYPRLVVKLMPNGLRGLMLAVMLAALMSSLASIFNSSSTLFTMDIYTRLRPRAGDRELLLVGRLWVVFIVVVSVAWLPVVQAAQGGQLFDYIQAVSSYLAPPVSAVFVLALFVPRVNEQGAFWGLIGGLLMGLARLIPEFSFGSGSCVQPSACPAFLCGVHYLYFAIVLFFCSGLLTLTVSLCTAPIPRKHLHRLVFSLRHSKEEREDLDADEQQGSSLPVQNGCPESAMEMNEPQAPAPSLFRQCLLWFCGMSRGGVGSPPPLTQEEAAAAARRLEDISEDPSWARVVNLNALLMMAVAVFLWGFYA
Description: SGLT-2 assay: sodium-dependent 14C-AMG uptake in CHO-hSGLT2 or HEK-hSGLT2 cells. The format is cell-based. The note with it: n = 1-4, hSGLT2-transfected CHO-K1 or HEK293 cells, read-out: SGLT2 IC50 nM (n = 1-4). Here is the method:
These cell lines transport 14 C-labeled alpha-methyl-glucopyranoside (14 C-AMG, Amersham) into the interior of the cell in sodium-dependent manner.
as §1

Turning to `CCOc1ccc(Cc2cc([C@@H]3OC4(CC4)[C@@H](O)[C@H](O)[C@H]3O)ccc2Cl)cc1` [Example 2, (5S,6R,7R,8S)-5-[4-Chloro-3-(4-ethoxy-benzyl)-phenyl]-4-oxa-spiro[2.5]octane-6,7,8-triol], the IC50 against human SGLT1 amounted to 300 nM; in assay [1], 1 nM.

Regarding `CCOc1ccc(Cc2cc([C@@H]3OC4(CC4)[C@@H](O)[C@H](O)[C@H]3O)ccc2C)cc1` [Example 3, (5S,6R,7R,8S)-5-[3-(4-Ethoxy-benzyl)-4-methyl-phenyl]-4-oxa-spiro[2.5]octane-6,7,8-triol], the values for the IC50 (at human SGLT1; in assay [1]) were 153 nM and 0.9 nM, respectively.

On to `Oc1ccc(Cc2cc([C@@H]3OC4(CC4)[C@@H](O)[C@H](O)[C@H]3O)ccc2Cl)cc1` [Example 6, (5S,6R,7R,8S)-5-[4-Chloro-3-(4-hydroxy-benzyl)-phenyl]-4-oxa-spiro[2.5]octane-6,7,8-triol], for which the IC50 against human SGLT1 came out at 460 nM; in assay [1], 2.6 nM.

For the molecule `CCOc1ccc(Cc2cc([C@@H]3OC(CO)(CO)[C@@H](O)[C@H](O)[C@H]3O)ccc2Cl)cc1` [Example 10, (3S,4R,5R,6S)-6-[4-Chloro-3-(4-ethoxy-benzyl)-phenyl]-2,2-bis-hydroxymethyl-tetrahydro-pyran-3,4,5-triol], the results for the IC50 (at human SGLT1; in assay [1]) were above 30000 nM and 23 nM, respectively.
